Results published in article PMC6483092 (ACS infectious diseases, 2019).

Experiments:
[1] = test system: HIV-1IIIB (wild-type); conditions: HIV-1IIIB strain (wild-type virus)
[2] = test system: HIV-1; conditions: as described in the literature; cited from earlier work

## CC[C@H](C)[C@H](NC(=O)[C@H](CC(C)C)NC(=O)[C@H](CO)NC(=O)[C@H](Cc1c[nH]cn1)NC(=O)[C@@H](NC(=O)[C@H](CC(C)C)NC(=O)[C@H](CO)NC(=O)[C@@H](NC(=O)[C@H](Cc1ccc(O)cc1)NC(=O)[C@H](CC(N)=O)NC(=O)[C@H](CC(N)=O)NC(=O)[C@@H](NC(=O)[C@H](CCC(=O)O)NC(=O)[C@H](CCCNC(=N)N)NC(=O)[C@H](CC(=O)O)NC(=O)[C@H](Cc1c[nH]c2ccccc12)NC(=O)[C@H](CCC(=O)O)NC(=O)[C@H](CCSC)NC(=O)[C@H](Cc1c[nH]c2ccccc12)NC(C)=O)[C@@H](C)CC)[C@@H](C)O)[C@@H](C)CC)C(=O)N[C@@H](CCC(=O)O)C(=O)N[C@@H](CCC(=O)O)C(=O)N[C@@H](CO)C(=O)N[C@@H](CCC(N)=O)C(=O)N[C@@H](CC(N)=O)C(=O)N[C@@H](CCC(N)=O)C(=O)N[C@@H](CCC(N)=O)C(=O)N[C@@H](CCC(=O)O)C(=O)N[C@@H](CCCCN)C(=O)N[C@@H](CC(N)=O)C(=O)N[C@@H](CCC(=O)O)C(=O)N[C@@H](CCC(N)=O)C(=O)N[C@@H](CCC(=O)O)C(=O)N[C@@H](CC(C)C)C(=O)N[C@@H](CC(C)C)C(=O)NCC(=O)N[C@@H](CO)C(=O)NCC(=O)N[C@@H](CSCC(=O)O[C@H]1CC[C@@]2(C)C(=CC[C@H]3[C@@H]4CC[C@H]([C@H](C)CCCC(C)(C)O)[C@@]4(C)CC[C@@H]32)C1)C(N)=O [C34-HC]
[1]
  IC50 times lower than enfuvirtide: 25 times
  IC90 times lower than enfuvirtide: 40 times

## WMEWDREINNYTSL-IHSLIEESQNQQEKNEQELL [C34]
[2]
  IC50: 1.4 nM
